# Like-named read-outs stand apart in the source and are kept apart here.
# Experiments:
# A2A AdoR [1] = experiment: Coronary blood flow and reversal time of coronary vasodilation in open-chest anesthetized pigs; details: pig
# Method: Farm pigs weighing 22-27 kg were used in this study. […] In addition, animals were used in accordance with the guidelines of the University of Kentucky Institutional Animal Care and Use Protocol.
# Anesthesia was anesthetized with ketamine (20 mg/kg, i.m.) and sodium pentobarbital (15-18 mg/kg i.v.). Anesthesia was maintained with additional sodium pentobarbital (1.5-2 mg/kg, i.v.) every 15-20 minutes. Ventilation was maintained via a tracheotomy using a mixture of room air and 100% O2. Tidal volume, respiratory rate and fraction of O2 in inspired air were adjusted to maintain normal arterial blood gas (ABG) and pH values. […] Lactate Ringers solution was administered via an ear or femoral vein, at 5-7 ml/kg/min after a initial bolus of 300-400 ml. A catheter was inserted into the femoral artery to monitor arterial blood pressure and to obtain ABG samples.
# The heart was exposed through a median sternotomy, and suspended in a pericardial cradle. Left ventricular pressure (LVP) was measured with a 5F high fidelity pressure sensitive tip transducer (Millar Instruments, Houston, Tex.) placed in the left ventricular cavity via the apex and secured with a purse string suture. A segment of the left anterior descending coronary artery (LAD), proximal to the origin of the first diagonal branch, was dissected free of, surrounding tissue. A transmit time perivascular flow probe (Transonic Systems Inc., Ithaca, N.Y.) was placed around this segment to measure coronary blood flow (CBF). Proximal to the flow probe a 24 g modified angiocatheter was inserted for intracoronary infusions. […] A2A AdoR agonists were dissolved in DMSO to produce stock concentrations of 1-5 mM, which were diluted in 0.9% saline and infused at rates of 1-1.5 ml/min. The A2A AdoR agonists were administered intracoronary. To maintain blood pressure constant, phenylephrine was administered intravenously. The phenylephrine stock solution (30 mM) was prepared in distilled water.
# Prior to initiating the experiment, a 30-minute stabilization period followed the completion of all instrumentation. After obtaining the baseline hemodynamic data the first intracoronary infusion of an A2A ADOR agonist was initiated. Infusions were maintained for 4-5 minutes to allow LAD CBF to reach a steadystate, after which the infusion was terminated. The time to recovery of 50% (t 0.5) and 90% (t 0.9) of baseline CBF were recorded. Ten to 15 minutes after CBF returned to pre-drug values a second infusion with a different agonist was started. […] The effect of a maximum of three different agonists was determined in each experiment.
# A1 AdoR = molecular target: T1, A1 AdoR (Rattus norvegicus, UniProt P25099); experiment: A-V nodal conduction time (negative dromotropic effect) in rat isolated perfused hearts; details: Compound 18 0.1-30 μM, CVT510 100-400 nM
# T1 construct: from tissue; host or cells: Sprague Dawley rat isolated perfused heart
# T1 sequence (P25099 1-326): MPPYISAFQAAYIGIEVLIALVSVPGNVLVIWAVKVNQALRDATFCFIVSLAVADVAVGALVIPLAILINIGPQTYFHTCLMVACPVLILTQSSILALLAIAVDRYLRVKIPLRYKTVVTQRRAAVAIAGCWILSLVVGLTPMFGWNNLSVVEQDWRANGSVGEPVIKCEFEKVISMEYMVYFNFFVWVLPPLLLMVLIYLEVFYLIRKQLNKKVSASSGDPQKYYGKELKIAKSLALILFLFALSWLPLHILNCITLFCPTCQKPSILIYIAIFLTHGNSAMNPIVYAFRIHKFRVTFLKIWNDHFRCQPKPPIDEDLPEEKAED
# Method: In experiments in which A1 adenosine receptor-mediated negative dromotropic effect was measured, atrial and ventricular surface electrograms were recorded during constant atrial pacing. The effect of various adenosine receptor agonists on atrioventricular conduction time was determined as described previously by Jenkins and Belardinelli Circ. Res. 63: 97-116 (1988).
# Rats and guinea pigs, of either sex weighing from 230 to 260 grams and 300 to 350 grams, respectively, were used in this study. Animals were anesthetized by peritoneal injection of a cocktail containing ketamine and xylazine (ketamine 100 mg, xylazine 20 mg/ml). The chest was opened and the heart quickly removed. The heart was briefly rinse in ice-cold Krebs-Henseleit solution (see below), and the aorta cannulated. […]
# A1 adenosine receptor-mediated depression of A-V nodal conduction time (negative dromotropic effect) was measured. Atrial and ventricular surface electrograms in rats and H is bundle electrogram in guinea pigs, were recorded during constant atrial pacing. The effects of Compound 18 on atrioventricular conduction time and stimulus-to-His-bundle (S-H interval) were determined as described previously by Jenkins and Belardinelli (1988).
# The effects of Compound 18 on coronary conductance (A2A effect) and atrioventricular conduction time or stimulus-to-His-bundle (S-H) interval (A1 effect) was then determined. […]
# A2A adenosine receptor = A2A adenosine receptor (Rattus norvegicus, UniProt P30543); experiment: Reversal time of coronary vasodilation after bolus injection in rat isolated perfused hearts
# Chain of A2A adenosine receptor (P30543 whole entry, the tested form may be a part): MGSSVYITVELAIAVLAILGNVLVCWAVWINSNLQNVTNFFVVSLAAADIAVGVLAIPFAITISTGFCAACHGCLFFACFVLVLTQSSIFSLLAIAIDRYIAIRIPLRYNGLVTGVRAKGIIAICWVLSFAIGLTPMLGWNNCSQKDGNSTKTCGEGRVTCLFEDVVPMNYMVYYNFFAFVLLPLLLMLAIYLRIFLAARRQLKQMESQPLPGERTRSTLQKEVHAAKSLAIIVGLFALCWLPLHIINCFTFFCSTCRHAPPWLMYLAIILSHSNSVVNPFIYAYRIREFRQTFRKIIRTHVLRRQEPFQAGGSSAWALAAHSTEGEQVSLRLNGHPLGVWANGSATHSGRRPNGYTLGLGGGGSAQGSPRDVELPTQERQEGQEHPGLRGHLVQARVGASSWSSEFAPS
# Method: Animals were anesthetized by peritoneal injection of a cocktail containing ketamine and xylazine (ketamine 100 mg, xylazine 20 mg/ml). The chest was opened and the heart quickly removed. The heart was briefly rinse in ice-cold Krebs-Henseleit solution (see below), and the aorta cannulated. […] The heart was electrically paced at a fixed cycle length of 340 ms (250 beats/min) using a bipolar electrode place on the left atrium. The electrical stimuli were generated by a Grass stimulator (Model S48, W. Warwick, R.I) and delivered through a Stimuli Isolation Unit (Model SIU5, Astro-Med, Inc., NY) as square-wave pulses of 3 msec in duration and amplitude of at least twice the threshold intensity.
# Coronary perfusion pressure (CPP) was measured using a pressure transducer, connected to the aortic cannula via a T-connector positioned approximately 3 cm above the heart. Coronary perfusion pressure was monitored throughout the experiment and recorded either on a chart recorder (Gould Recorder 2200S) or a computerized recording system (PowerLab/4S, ADInstruments Pty Ltd, Australia). Only hearts with CPP ranging from 60 to 85 mmHg (in the absence of drugs) were used in the study.
# Protocol: Bolus injections. […] The times to 50% (t 0.5) and 90% (t 0.9) reversal of the decrease in CPP were measured. Each heart was exposed to a maximum of three vasodilators.
# human A1 AdoR = molecular target: T2, human A1 AdoR (Homo sapiens, UniProt P30542); experiment: Competition binding, [3H]DPCPX binding sites on CHO-hA1AdoR cell membranes; details: Gpp(NH)p 100 μM
# T2 construct: expressed in transfected cells
# T2 sequence (P30542 1-326): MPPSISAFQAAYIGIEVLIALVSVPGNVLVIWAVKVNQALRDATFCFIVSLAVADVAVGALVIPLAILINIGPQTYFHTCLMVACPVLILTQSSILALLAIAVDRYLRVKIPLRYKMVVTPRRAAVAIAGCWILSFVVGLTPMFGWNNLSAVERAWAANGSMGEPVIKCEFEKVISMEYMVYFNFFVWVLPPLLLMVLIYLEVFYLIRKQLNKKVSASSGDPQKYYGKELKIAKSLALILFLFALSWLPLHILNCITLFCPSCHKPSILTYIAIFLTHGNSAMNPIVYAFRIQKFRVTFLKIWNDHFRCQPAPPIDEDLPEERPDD
# human A2A AdoR = human A2A AdoR (Homo sapiens, UniProt P29274); experiment: Competition binding, [3H]ZM241385 binding sites on HEK-hA2AAR cell membranes; details: for Ki: HEK-hA2AAR Cells
# Chain of human A2A AdoR (P29274 whole entry, the tested form may be a part): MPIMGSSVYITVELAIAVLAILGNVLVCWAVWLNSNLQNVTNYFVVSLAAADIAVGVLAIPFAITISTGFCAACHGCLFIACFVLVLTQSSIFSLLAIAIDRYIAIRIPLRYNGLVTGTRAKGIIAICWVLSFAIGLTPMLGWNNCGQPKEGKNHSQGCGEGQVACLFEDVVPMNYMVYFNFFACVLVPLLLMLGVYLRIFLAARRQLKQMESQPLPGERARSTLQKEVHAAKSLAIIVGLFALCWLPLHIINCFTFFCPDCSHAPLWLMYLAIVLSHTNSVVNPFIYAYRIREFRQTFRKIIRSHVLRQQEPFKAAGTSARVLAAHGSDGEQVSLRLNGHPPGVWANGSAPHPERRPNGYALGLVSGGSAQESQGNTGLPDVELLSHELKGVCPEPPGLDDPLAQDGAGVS
# Method: To make membranes, cells were detached from the culture plates into ice-cold 50 mmol/L Tris-HCI buffer (pH7.4). The cell suspensions were homogenized with Polytron at setting 4 for 30 seconds, and spun at 48,000 g for 15 minutes. The pellets were washed three times by re-suspension in ice-cold Tris-HCI buffer and centrifugation. The final pellet was re-suspended in a small volume of Tris-HCI, aliquoted and frozen at −80° C. until used for receptor binding assays. The protein concentration of membrane suspensions was determined using the Bradford method (Bio-Rad) with bovine serum as standards.
# At the end of incubation, bound and free radioligands were separated by filtration through Whatman GF/C glass fiber filters using a Brandel tissue harvester (Gaithersburg, Md.). Triplicate determinations were performed for each concentration of the competing agent.
# The affinity (Ki) of various CVT compounds for the A1 and A2A adenosine receptor were determined by their potency to compete for [^3H]CPX (A1) or [^3H]ZM241385 (A2A) binding sites on membranes derived from CHO-hA1AdoR, PC12 or HEK-HA2AAdoR cells.
# A2A AdoR [2] = molecular target: A2A AdoR (Rattus norvegicus, UniProt P30543); experiment: Increase of coronary conductance in rat isolated perfused hearts
# Chain of A2A AdoR (Rattus norvegicus, UniProt P30543) (P30543 whole entry, the tested form may be a part): as the sequence (P30543 whole entry, the tested form may be a part) above
# Method: (§1) Adult Sprague Dawley rats and Hartley guinea pigs of either sex weighing from 230 to 260 grams and 300 to 350 grams, respectively were used in this study. Animals were anesthetized by peritoneal injection of a cocktail containing ketamine and xylazine (ketamine 100 mg, xylazin 20 mg/ml). The chest was opened and the heart quickly removed. The heart was briefly rinse in ice-cold Krebs-Henseleit solution (see below), and the aorta cannulated. […] The heart was electrically paced at a fixed cycle length of 340 ms (250 beats/min) using a bipolar electrode place on the left atrium. The electrical stimuli were generated by a Grass stimulator (Model S48, W. Warwick, R.I.) and delivered through a Stimuli Isolation Unit (Model SIU5, Astro-Med, Inc., NY) as square-wave pulses of 3-msec in duration and amplitude of at least twice the threshold intensity.
# Coronary perfusion pressure (CPP) was measured using a pressure transducer, connected to the aortic cannula via a T-connector positioned approximately 3 cm above the heart. Coronary perfusion pressure was monitored throughout the experiment and recorded either on a chart recorder (Gould Recorder 2200S) or a computerized recording system (PowerLab/4S, ADinstruments Pty Ltd, Australia). Only hearts with CPP ranging from 60 to 85 mmHg (in the absence of drugs) were used in the study.
# One concentration was made from the stock solution by dilution into saline to yield solution of either 2×10^−4 or 2×10^−5 M. These solutions were injected into the perfusion line of the apparatus as boluses of 20 μl. In some experiments the solutions were placed into a 30 ml glass syringe and the drugs were infused at rates necessary to achieve the desired perfusate concentrations (e.g, 10, 100 nM, etc).
# Hearts were instrumented for continuous recording of coronary perfusion pressure (A2A response) and atrioventricular (A-V) conduction time or S-H interval (A1 response).
# A2A receptor = A2A receptor (Sus scrofa, UniProt K9IW67); experiment: Affinity for the A2A receptor in a pig striatum membrane prep (displacement of tritiated ZM 241385); type: binding
# Chain of A2A receptor (K9IW67 1-409): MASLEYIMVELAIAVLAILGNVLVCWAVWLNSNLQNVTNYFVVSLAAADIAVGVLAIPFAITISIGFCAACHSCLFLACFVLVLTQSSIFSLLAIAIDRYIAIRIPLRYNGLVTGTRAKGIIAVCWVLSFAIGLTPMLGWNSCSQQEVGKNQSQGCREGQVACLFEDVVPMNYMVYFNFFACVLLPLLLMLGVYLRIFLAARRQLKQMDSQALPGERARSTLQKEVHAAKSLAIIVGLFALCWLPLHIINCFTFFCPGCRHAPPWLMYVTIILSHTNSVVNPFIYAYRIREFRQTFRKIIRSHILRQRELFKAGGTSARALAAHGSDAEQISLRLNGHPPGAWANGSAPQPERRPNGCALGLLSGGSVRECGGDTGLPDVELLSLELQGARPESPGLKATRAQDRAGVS
# Method: Compounds of this invention were assayed to determine their affinity for the A2A receptor in a pig striatum membrane prep. Briefly, 0.2 mg of pig striatal membranes were treated with adenosine deaminase and 50 mM Tris buffer (pH=7.4) followed by mixing. […] After incubation at 23 C for 2 h, then the solutions were filtered using a membrane harvester using multiple washing of the membranes (3×). The filter disks were counted in scintillation cocktail affording the amount of displacement of tritiated ZM by the competitive binding compounds of this invention. Greater than a 5 point curve was used to generate IC50's and the number of experiments is indicated in the column marked in Table 1 below.
# A2A AdoR [3] = molecular target: A2A AdoR (Cavia porcellus, UniProt P46616); experiment: Increase of coronary conductance in guinea pig isolated perfused hearts
# Chain of A2A AdoR (Cavia porcellus, UniProt P46616) (P46616 whole entry, the tested form may be a part): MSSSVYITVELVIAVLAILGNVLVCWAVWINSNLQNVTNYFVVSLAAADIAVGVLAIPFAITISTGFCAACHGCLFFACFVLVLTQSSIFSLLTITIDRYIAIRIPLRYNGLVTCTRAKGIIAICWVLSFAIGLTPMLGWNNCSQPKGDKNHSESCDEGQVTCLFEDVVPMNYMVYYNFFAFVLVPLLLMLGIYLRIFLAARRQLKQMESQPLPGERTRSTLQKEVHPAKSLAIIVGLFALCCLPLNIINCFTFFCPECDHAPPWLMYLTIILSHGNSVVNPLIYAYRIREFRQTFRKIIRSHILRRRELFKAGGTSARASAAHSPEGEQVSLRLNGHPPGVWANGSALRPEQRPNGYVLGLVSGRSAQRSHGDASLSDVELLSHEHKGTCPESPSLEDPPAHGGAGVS
# Method: as §1
# Coronary perfusion pressure (CPP) was measured using a pressure transducer, connected to the aortic cannula via a T-connector positioned approximately 3 cm above the heart. Coronary perfusion pressure was monitored throughout the experiment and recorded either on a chart recorder (Gould Recorder 2200S) or a computerized recording system (PowerLab/4S, ADinstruments Pty Ltd, Australia). Only hearts with CPP ranging from 60 to 85 mmHg (in the absence of drugs) were used in the study. […]
# [4] = intracoronary infusion 2 μg/kg/min
# [5] = intracoronary infusion 30 μg/kg/min
# [6] = pig striatal membranes, tritiated ZM 241385 2 nM, 23 C 2 h, read-out: A2a Ki
# [7] = rat isolated perfused hearts, bolus into perfusion line
# [8] = intracoronary infusion 1 μg/kg/min
structure (smiles),measurement,setting,value
"CCNC(=O)[C@H]1O[C@@H](n2cnc3c(N)nc(NCCc4ccc(CCC(=O)O)cc4)nc32)[C@H](O)[C@@H]1O [CGS21680, reference compound]","t0.5, time to 50% reversal of the increase in coronary blood flow",A2A AdoR [1]; [4],9.7 ± 0.8 min
same,"t0.9, time to 90% reversal of the increase in coronary blood flow",A2A AdoR [1]; [4],21.4 ± 0.8 min
"OC[C@H]1OC(n2cnc3c(N[C@@H]4CCOC4)ncnc32)[C@H](O)[C@@H]1O (stereo partly drawn) [CVT510, 2-{6-[((3R)oxolan-3-yl)amino]purin-9-yl}(4S,3R,5R)-5-(hydroxymethyl)oxolane-3,4-diol, reference compound]",effect on A-V nodal conduction time,A1 AdoR,significantly prolonged
"Nc1nc(-c2cnn(Cc3ccccc3)c2)nc2c1ncn2[C@@H]1O[C@H](CO)[C@@H](O)[C@H]1O [Compound 12, (4S,2R,3R,5R)-2-{6-amino-2-[1-benzylpyrazol-4-yl]purin-9-yl}-5-(hydroxymethyl)oxolane-3,4-diol]","t 0.5, time to 50% reversal of the increase in coronary conductance",A2A adenosine receptor,4.1 ± 0.3 min
same,"t 0.9, time to 90% reversal of the increase in coronary conductance",A2A adenosine receptor,9.8 ± 1.4 min
same,Ki,"human A1 AdoR; read-out: Binding Affinity Ki, CHO-hA1AR",6.35 µM
same,Ki,"human A1 AdoR; read-out: Binding Affinity pKi ± SEM, CHO-hA1AR (converted)",6.03 µM
same,Ki,human A2A AdoR; Binding Affinity Ki,13.7 µM
same,Ki,human A2A AdoR; Binding Affinity pKi ± SEM,13.5 µM
same,"CBF (""Fold Increase"") above baseline, maximal",A2A AdoR [1]; [5],3.78 ± 0.70 fold
same,"t0.5, time to 50% reversal of the increase in coronary blood flow",A2A AdoR [1]; [5],2.3 ± 0.6 min
same,"t0.9, time to 90% reversal of the increase in coronary blood flow",A2A AdoR [1]; [5],9.6 ± 1.0 min
same,effect on coronary conductance,A2A AdoR [2],concentration-dependent increase
same,relative potency in increasing coronary conductance,A2A AdoR [2],about as potent as adenosine
same,Ki,A2A receptor,6.67 ± 1.12 µM
"CC(C)n1cc(-c2nc(N)c3ncn([C@@H]4O[C@H](CO[Si](C)(C)C(C)(C)C)[C@@H](O[Si](C)(C)C(C)(C)C)[C@H]4O[Si](C)(C)C(C)(C)C)c3n2)cn1 [Compound 16, 9-{(2R,3R,4R,5R)-3,4-bis(1,1,2,2-tetramethyl-1silapropoxy)-5-[(1,1,2,2-tetramethyl-1-silapropoxy)methyl]oxolan-2-yl}-2-[1-(1-methylethyl)pyrazol 4-yl]purine-6-ylamine]",A2A affinity,human A2A AdoR; conclusion of Example 5,low affinity A2A agonist
"Cn1cc(-c2nc(N)c3ncn([C@@H]4O[C@H](CO)[C@@H](O)[C@H]4O)c3n2)cn1 [Compound 19, (4S,2R,3R,5R)-2-[6-amino-2-(1-methylpyrazol-4-yl)purin-9-yl]-5-(hydroxymethyl)oxolane-3,4-diol]",Ki,A2A receptor; [6],> 10 µM
"CC(C)n1cc(-c2nc(N)c3ncn([C@@H]4O[C@H](CO)[C@@H](O)[C@H]4O)c3n2)cn1 [Compound 20, (4S,2R,3R,5R)-2-{6-amino-2-[1-(methylethyl)pyrazol-4-yl]purin-9-yl}-5-(hydroxymethyl)oxolane-3,4-diol]",Ki,A2A receptor; [6],~10 µM
"Nc1nc(-c2cnn(CCCc3ccccc3)c2)nc2c1ncn2C1O[C@H](CO)[C@@H](O)[C@H]1O (stereo partly drawn) [Compound 21, (4S,2R,3R,5R)-2-{6-amino-2-[1-(3-phenylpropyl)pyrazolyl-4-yl]purin-9-yl}-5-(hydroxymethyl)oxolane-3,4-diol]","t 0.5, time to 50% reversal of the increase in coronary conductance",A2A adenosine receptor; [7],8.3 ± 0.4 min
same,"t 0.9, time to 90% reversal of the increase in coronary conductance",A2A adenosine receptor; [7],12.6 ± 0.4 min
same,Ki,A2A receptor; [6],6.13 ± 0.582 µM
"CC(C)(C)c1ccc(Cn2cc(-c3nc(N)c4ncn([C@@H]5O[C@H](CO)[C@@H](O)[C@H]5O)c4n3)cn2)cc1 [Compound 22, (4S,2R,3R,5R)-2-{6-amino-2-[1-(4-t-butylbenzyl)pyrazol-4-yl]purin-9-yl}-5-(hydroxymethyl)oxolane-3,4-diol]",Ki,A2A receptor; [6],7.68 µM
"Nc1nc(-c2cn[nH]c2)nc2c1ncn2[C@@H]1O[C@H](CO)[C@@H](O)[C@H]1O [Compound 23, (4S,2R,3R,5R)-2-(6-amino-2-pyrazol-4-ylpurin-9-yl)-5-(hydroxymethyl)oxolane-3,4-diol]",Ki,A2A receptor; [6],> 100 µM
"CCCCC#Cc1nc(N)c2ncn([C@@H]3O[C@H](C(=O)NCC)[C@@H](O)[C@H]3O)c2n1 [HENECA, reference compound]","t 0.5, time to 50% reversal of the increase in coronary conductance",A2A adenosine receptor; [7],28.6 ± 1.1 min
same,"t 0.9, time to 90% reversal of the increase in coronary conductance",A2A adenosine receptor; [7],32.8 ± 3.1 min
"Nc1nc(N/N=C/C2CCCCC2)nc2c1ncn2[C@@H]1O[C@H](CO)[C@@H](O)[C@H]1O [WRC-0470, reference compound]","t 0.5, time to 50% reversal of the increase in coronary conductance",A2A adenosine receptor,21.9 ± 0.9 min
same,"t 0.9, time to 90% reversal of the increase in coronary conductance",A2A adenosine receptor,27.9 ± 1.4 min
same,"t0.5, time to 50% reversal of the increase in coronary blood flow",A2A AdoR [1]; [8],9.5 ± 0.8 min
same,"t0.9, time to 90% reversal of the increase in coronary blood flow",A2A AdoR [1]; [8],22.5 ± 1.6 min
same,EC50,A2A AdoR [2],0.0006 ± 0.0002 µM
same,effect on coronary conductance,A2A AdoR [2],concentration-dependent increase
same,EC50,A2A AdoR [3],0.0024 ± 0.0011 µM
"CCCCCCC#Cc1nc(N)c2ncn([C@@H]3O[C@H](CO)[C@@H](O)[C@H]3O)c2n1 [YT-146, reference compound]","t 0.5, time to 50% reversal of the increase in coronary conductance",A2A adenosine receptor; [7],17.7 ± 1.0 min
same,"t 0.9, time to 90% reversal of the increase in coronary conductance",A2A adenosine receptor; [7],28.5 ± 4.0 min
same,"CBF (""Fold Increase"") above baseline, maximal",A2A AdoR [1]; [8],3.44 ± 0.47 fold
same,"t0.9, time to 90% reversal of the increase in coronary blood flow",A2A AdoR [1]; [8],32.9 ± 5.6 min
